PubChem BioAssay AID1996
Converted amounts (≈) assume the structure as drawn.

Conditions: buffer; pH 7.4; 200.0 µM

**Q.** Which solubility kinetic does the source give for `CC(=O)N1C(=O)NC(c2ccccc2)=C([N+](=O)[O-])C1c1ccccc1` (stereo unspecified) here?
**A.** 43.2 µg/mL (≈ 128 µM)

**Q.** For `O=C(COc1ccccc1Cl)NCCCNC(=O)c1ccncc1`, which solubility kinetic is on record?
**A.** 44.7 µg/mL (≈ 129 µM)

**Q.** Which solubility kinetic does the source give for `CCN1CCN(c2nc(-c3ccc(F)cc3)cc(=O)[nH]2)CC1` here?
**A.** > 45.4 µg/mL

**Q.** With `O=C(NCc1cccnc1)C(=O)Nc1ccc([N+](=O)[O-])cc1` as the compound, how does the solubility kinetic read?
**A.** 3.7 µg/mL (≈ 12.3 µM)

**Q.** Which solubility kinetic does the source give for `Br.CCSC(=Nc1ccccc1)N1CCOCC1` here?
**A.** 43.9 µg/mL

**Q.** Which solubility kinetic does the source give for `COC(=O)C1CCN(c2cnccn2)CC1` here?
**A.** > 33.2 µg/mL

**Q.** For `COC(=O)CNC(=O)COC(=O)Cc1ccc(Cl)cc1`, which solubility kinetic is on record?
**A.** > 45 µg/mL

**Q.** Which solubility kinetic does the source give for `COc1ccccc1-c1cc(C(=O)NC2CCCC2)no1` here?
**A.** 6.1 µg/mL (≈ 21.3 µM)

**Q.** Which solubility kinetic does the source give for `CC1CN(C(=O)Cn2c(=O)oc3ccccc32)CC(C)O1` (stereo unspecified) here?
**A.** 43.1 µg/mL (≈ 148 µM)

**Q.** With `Cc1ccc(C2=N/C(=C\c3cccc(F)c3)C(=O)O2)cc1` as the compound, how does the solubility kinetic read?
**A.** < 0.6 µg/mL

**Q.** For `Cc1ccc(NC(=S)NCc2ccc(F)cc2)c(C)c1`, which solubility kinetic is on record?
**A.** 36.2 µg/mL (≈ 126 µM)

**Q.** Which solubility kinetic does the source give for `CC1CCCCC1NC(=S)NC(=O)c1ccccc1Cl` (stereo unspecified) here?
**A.** 1.6 µg/mL (≈ 5.15 µM)

**Q.** With `CC1(C(=O)N2CCOCC2)CCCCC1` as the compound, how does the solubility kinetic read?
**A.** 26.3 µg/mL (≈ 124 µM)

**Q.** With `CCN(CC)CCn1c(C)nc2ccccc21.Cl` as the compound, how does the solubility kinetic read?
**A.** 40.6 µg/mL

**Q.** With `CCC(C)N(C)C1CCN(C(=S)Nc2cccc(SC)c2)CC1` (stereo unspecified) as the compound, how does the solubility kinetic read?
**A.** > 52.7 µg/mL

**Q.** With `O=C(O)C1C2CCC(O2)C1C(=O)Nc1ccc(Cl)cc1F` (stereo unspecified) as the compound, how does the solubility kinetic read?
**A.** > 47.1 µg/mL

**Q.** Which solubility kinetic does the source give for `CCCCN(C(=O)c1cccc(-c2ccc(OC(C)=O)cc2)c1)c1c(N)n(CCC)c(=O)[nH]c1=O` here?
**A.** 8.5 µg/mL (≈ 17.8 µM)

**Q.** For `Cc1ccc2nc(-c3ccc(O)c(O)c3)cn2c1.Cl`, which solubility kinetic is on record?
**A.** 22.7 µg/mL

**Q.** With `CN(C)c1cccc(C(=O)OCC(=O)NC(=O)NCc2ccccc2)c1` as the compound, how does the solubility kinetic read?
**A.** 2.6 µg/mL (≈ 7.32 µM)

**Q.** For `CCOC(=O)C1CCN(C(=O)/C=C/c2ccc3c(c2)OCO3)CC1`, which solubility kinetic is on record?
**A.** > 49.7 µg/mL

**Q.** With `Cc1cc(C)nc(N2CCCC(C(=O)NC(C)C)C2)n1` (stereo unspecified) as the compound, how does the solubility kinetic read?
**A.** 41.1 µg/mL (≈ 149 µM)

**Q.** With `C[C@@H](C(=O)N1CCN(c2ccccc2)CC1)N1C(=O)C2CC=CCC2C1=O` (stereo partly specified) as the compound, how does the solubility kinetic read?
**A.** > 55.1 µg/mL

**Q.** For `O=C(COC(=O)[C@@H]1CC(O)CN1S(=O)(=O)c1ccc(Cl)c(Cl)c1)NC(=O)NCc1ccccc1` (stereo partly specified), which solubility kinetic is on record?
**A.** 66.7 µg/mL (≈ 126 µM)

**Q.** For `Cc1ccc(C(=O)NC(=S)Nc2ccccc2C)cc1`, which solubility kinetic is on record?
**A.** 1.4 µg/mL (≈ 4.92 µM)

**Q.** Which solubility kinetic does the source give for `CC(C)(C)NC(=O)COC(=O)CCC(=O)c1cccs1` here?
**A.** > 44.6 µg/mL

**Q.** Which solubility kinetic does the source give for `CCOc1ccc(NC(=O)c2ccc(CC)s2)c([N+](=O)[O-])c1` here?
**A.** < 0.3 µg/mL

**Q.** For `CC(C)CCNC(=O)NC(=O)CSc1ncccn1`, which solubility kinetic is on record?
**A.** 28.9 µg/mL (≈ 102 µM)

**Q.** Which solubility kinetic does the source give for `O=C(/C=C/c1ccc([N+](=O)[O-])cc1)OCC(=O)N1CCCCCC1` here?
**A.** 18.9 µg/mL (≈ 56.9 µM)

**Q.** With `Fc1ccc(NC(=S)NCCN2CCOCC2)c(F)c1F` as the compound, how does the solubility kinetic read?
**A.** > 47.9 µg/mL

**Q.** For `Cc1ccc(C(=O)NC(C)c2ccc(C)c(C)c2)s1` (stereo unspecified), which solubility kinetic is on record?
**A.** 3.5 µg/mL (≈ 12.8 µM)

**Q.** With `CCCCOc1ccc(CSCCN)cc1Cl.Cl` as the compound, how does the solubility kinetic read?
**A.** > 46.5 µg/mL

**Q.** Which solubility kinetic does the source give for `Cc1cccc(OCC(=O)NCCNC(=O)c2ccncc2)c1` here?
**A.** 42.3 µg/mL (≈ 135 µM)

**Q.** Which solubility kinetic does the source give for `Cc1ccc2oc(=O)c3cc(C(=O)N4CCN(C)CC4)sc3c2c1` here?
**A.** 11.8 µg/mL (≈ 34.5 µM)

**Q.** With `COc1ccc(OC)c(NC(=O)N2CCc3ccccc3C2)c1` as the compound, how does the solubility kinetic read?
**A.** > 46.9 µg/mL

**Q.** Which solubility kinetic does the source give for `CNC(=O)COC(=O)c1ccc(Cl)c(S(N)(=O)=O)c1` here?
**A.** > 46 µg/mL

**Q.** For `CC(C)CCn1cnc2c1c(=O)[nH]c(=O)n2Cc1ccccc1`, which solubility kinetic is on record?
**A.** 29.8 µg/mL (≈ 95.4 µM)

**Q.** Which solubility kinetic does the source give for `COc1ccccc1/C=C/C(=O)OCC(=O)N1CCCCC1` here?
**A.** > 45.5 µg/mL

**Q.** For `Cc1ccc(S(=O)(=O)N2CCC[C@H]2C(=O)Nc2ccccc2Cl)cc1`, which solubility kinetic is on record?
**A.** 17.4 µg/mL (≈ 45.9 µM)

**Q.** Which solubility kinetic does the source give for `S=C(NCc1ccccc1)NCc1ccccn1` here?
**A.** > 38.6 µg/mL

**Q.** For `O=C(CCCCN1CCCCC1)c1ccc2c(c1)Cc1ccccc1-2`, which solubility kinetic is on record?
**A.** 6.6 µg/mL (≈ 19.8 µM)

**Q.** Which solubility kinetic does the source give for `Cc1cc(OCc2nc3ccccc3s2)ccc1N` here?
**A.** 30.6 µg/mL (≈ 113 µM)

**Q.** For `CC(=O)c1cc(C#N)c(SCc2ccc([N+](=O)[O-])cc2)nc1C`, which solubility kinetic is on record?
**A.** < 0.2 µg/mL

**Q.** Which solubility kinetic does the source give for `Cl.c1ccc(-c2ccc(CNC3CC3)cc2)cc1` here?
**A.** 37.9 µg/mL

**Q.** Which solubility kinetic does the source give for `COc1cc(S(=O)(=O)N2CCOCC2)ccc1NC(=O)COC(=O)c1cc(OC)c(OC)c(OC)c1` here?
**A.** 4.5 µg/mL (≈ 8.58 µM)

**Q.** For `Cc1cc(C)c(NC(=O)COC(=O)C2CCC(=O)N2)c(C)c1` (stereo unspecified), which solubility kinetic is on record?
**A.** > 45.7 µg/mL

**Q.** For `CC1(C)CC(NC(=O)N2c3ccccc3Sc3ccccc32)CC(C)(C)N1`, which solubility kinetic is on record?
**A.** 43.1 µg/mL (≈ 113 µM)

**Q.** With `Cc1cccc(NC(=O)c2ccc3c(c2)OCCO3)c1` as the compound, how does the solubility kinetic read?
**A.** 35.5 µg/mL (≈ 132 µM)

**Q.** Which solubility kinetic does the source give for `Cc1ccc(NC(=O)CNC(=O)c2ccc(C)s2)nc1` here?
**A.** > 43.4 µg/mL

**Q.** For `CCc1noc(C)c1C(=O)Nc1nc2c(C)cc(C)cc2s1`, which solubility kinetic is on record?
**A.** 3.2 µg/mL (≈ 10.1 µM)

**Q.** Which solubility kinetic does the source give for `O=C(O)C(NS(=O)(=O)c1ccccc1)C(O)c1ccccc1` (stereo unspecified) here?
**A.** 33.9 µg/mL (≈ 105 µM)

**Q.** For `CCn1c(/C=C/c2ccc(O)c(O)c2)nc2ccccc2c1=O`, which solubility kinetic is on record?
**A.** 27 µg/mL (≈ 87.6 µM)

**Q.** Which solubility kinetic does the source give for `CC(C)(CNC(=O)c1cccs1)N1CCOCC1` here?
**A.** > 40.3 µg/mL

**Q.** For `Cc1cc2cc(CNC(=O)COc3ccccc3)ccc2n1C`, which solubility kinetic is on record?
**A.** 5.2 µg/mL (≈ 16.9 µM)

**Q.** With `CCC(CC)NC(=O)COc1ccc(OC)cc1C=O` as the compound, how does the solubility kinetic read?
**A.** 30.7 µg/mL (≈ 110 µM)

**Q.** For `CCOC(=O)CN1C(=O)CC(c2ccc([N+](=O)[O-])cc2)C1=O` (stereo unspecified), which solubility kinetic is on record?
**A.** > 45.9 µg/mL

**Q.** With `CN1CCCC(OC(=O)c2ccc(Cl)cc2)C1.Cl` (stereo unspecified) as the compound, how does the solubility kinetic read?
**A.** 41.5 µg/mL

**Q.** For `CS(=O)(=O)c1ccc(Cl)c(NC(=O)CNC(=O)c2ccc3c(c2)OCO3)c1`, which solubility kinetic is on record?
**A.** > 61.6 µg/mL

**Q.** For `CC1=CSC2=NS(=O)(=O)CCN12`, which solubility kinetic is on record?
**A.** > 30.6 µg/mL

**Q.** For `CN1CCCN(C(=O)COc2cccc(C(F)(F)F)c2)CC1`, which solubility kinetic is on record?
**A.** > 47.4 µg/mL

**Q.** With `Cc1ccc(C)c(OCC(=O)Nc2ccncc2)c1` as the compound, how does the solubility kinetic read?
**A.** 37 µg/mL (≈ 144 µM)

**Q.** With `O=[N+]([O-])c1cc(-c2cnc3ccccc3n2)ccc1Cl` as the compound, how does the solubility kinetic read?
**A.** < 0.2 µg/mL
